Measured values from ChEMBL document CHEMBL1909046, “DrugMatrix in vitro pharmacology data”.

Tests used:
[1] = biological target: T1, Receptor-type tyrosine-protein phosphatase C (Homo sapiens, UniProt P08575); parameters: species or system Escherichia coli;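 note: inhibition of CD45 enzyme activity measured using DiFMUP as substrate; in other assays of this panel Not Active means under 50% inhibition at 10 µM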
T1 sequence (P08575 whole entry): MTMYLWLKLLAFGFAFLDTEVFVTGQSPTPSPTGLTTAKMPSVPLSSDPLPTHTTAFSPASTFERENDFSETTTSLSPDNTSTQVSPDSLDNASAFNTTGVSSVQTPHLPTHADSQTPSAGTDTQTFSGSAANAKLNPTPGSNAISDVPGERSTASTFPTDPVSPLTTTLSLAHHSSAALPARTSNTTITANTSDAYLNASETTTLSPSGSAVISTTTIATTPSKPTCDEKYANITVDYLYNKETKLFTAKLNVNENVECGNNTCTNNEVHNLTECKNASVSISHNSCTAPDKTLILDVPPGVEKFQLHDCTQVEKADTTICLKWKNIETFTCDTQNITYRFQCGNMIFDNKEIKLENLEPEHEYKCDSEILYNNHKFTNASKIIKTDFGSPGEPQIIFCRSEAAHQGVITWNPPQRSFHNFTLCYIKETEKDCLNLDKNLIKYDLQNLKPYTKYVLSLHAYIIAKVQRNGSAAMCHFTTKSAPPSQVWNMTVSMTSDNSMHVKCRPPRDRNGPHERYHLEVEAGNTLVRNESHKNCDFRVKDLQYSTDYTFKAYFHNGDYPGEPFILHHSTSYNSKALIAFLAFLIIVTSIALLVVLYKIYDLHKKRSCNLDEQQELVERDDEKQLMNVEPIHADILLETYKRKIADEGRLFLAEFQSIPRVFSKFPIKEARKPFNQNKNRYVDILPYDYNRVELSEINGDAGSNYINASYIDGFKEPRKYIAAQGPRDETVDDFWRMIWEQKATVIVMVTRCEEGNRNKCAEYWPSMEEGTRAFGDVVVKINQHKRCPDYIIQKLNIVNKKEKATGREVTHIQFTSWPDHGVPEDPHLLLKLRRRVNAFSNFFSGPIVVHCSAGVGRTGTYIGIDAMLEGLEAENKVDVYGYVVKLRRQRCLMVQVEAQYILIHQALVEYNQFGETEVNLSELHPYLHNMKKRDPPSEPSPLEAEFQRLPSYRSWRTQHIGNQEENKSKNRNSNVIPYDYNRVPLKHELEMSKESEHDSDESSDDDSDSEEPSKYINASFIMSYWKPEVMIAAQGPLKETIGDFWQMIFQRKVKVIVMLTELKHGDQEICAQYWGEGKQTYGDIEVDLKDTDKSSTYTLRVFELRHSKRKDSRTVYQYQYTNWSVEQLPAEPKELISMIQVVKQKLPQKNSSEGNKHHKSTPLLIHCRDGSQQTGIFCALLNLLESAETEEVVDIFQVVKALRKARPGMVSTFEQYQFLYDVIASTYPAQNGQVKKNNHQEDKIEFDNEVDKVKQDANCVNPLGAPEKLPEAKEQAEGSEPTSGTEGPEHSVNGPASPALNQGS

[2] = DRUGMATRIX: Glutamate, Kainate radioligand binding (ligand: [3H] Kainic acid); assay type: cell membranes, Rattus norvegicus, Wistar, Brain, Membrane; settings: Not Active = under 50% inhibition at 10 µM
[3] = DRUGMATRIX: Glutamate, AMPA radioligand binding (ligand: [3H] AMPA); assay type: cell membranes, Rattus norvegicus, Wistar, Cerebral cortex, Membrane; settings: Not Active = under 50% inhibition at 10 µM
Glycine receptor = Glycine receptor (Rattus norvegicus, UniProt P22771+P24524+P07727+P20781); assay type: cell membranes, Wistar, Spinal cord, Membrane; note: in other assays of this panel Not Active means under 50% inhibition at 10 µM
[4] = biological target: Delta-type opioid receptor (Homo sapiens, UniProt P41143); assay type: cell membranes, Membrane; settings: hek293; note: in other assays of this panel Not Active means under 50% inhibition at 10 µM
Delta-type opioid receptor, sequence (P41143 whole entry): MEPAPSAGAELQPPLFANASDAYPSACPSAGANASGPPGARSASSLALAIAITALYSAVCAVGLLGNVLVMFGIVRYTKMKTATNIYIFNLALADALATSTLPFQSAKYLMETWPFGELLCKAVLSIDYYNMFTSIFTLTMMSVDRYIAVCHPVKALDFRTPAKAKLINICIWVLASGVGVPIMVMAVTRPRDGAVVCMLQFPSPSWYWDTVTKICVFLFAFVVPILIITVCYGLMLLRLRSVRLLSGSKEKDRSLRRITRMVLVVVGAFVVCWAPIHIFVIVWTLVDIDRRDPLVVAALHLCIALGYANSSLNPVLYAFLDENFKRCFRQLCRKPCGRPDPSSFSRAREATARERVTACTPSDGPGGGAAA

[5] = biological target: T2, Neuropeptide Y receptor type 1 (Homo sapiens, UniProt P25929); assay type: cell membranes, Membrane; settings: sk-n-mc; note: in other assays of this panel Not Active means under 50% inhibition at 10 µM
T2 sequence (P25929 whole entry): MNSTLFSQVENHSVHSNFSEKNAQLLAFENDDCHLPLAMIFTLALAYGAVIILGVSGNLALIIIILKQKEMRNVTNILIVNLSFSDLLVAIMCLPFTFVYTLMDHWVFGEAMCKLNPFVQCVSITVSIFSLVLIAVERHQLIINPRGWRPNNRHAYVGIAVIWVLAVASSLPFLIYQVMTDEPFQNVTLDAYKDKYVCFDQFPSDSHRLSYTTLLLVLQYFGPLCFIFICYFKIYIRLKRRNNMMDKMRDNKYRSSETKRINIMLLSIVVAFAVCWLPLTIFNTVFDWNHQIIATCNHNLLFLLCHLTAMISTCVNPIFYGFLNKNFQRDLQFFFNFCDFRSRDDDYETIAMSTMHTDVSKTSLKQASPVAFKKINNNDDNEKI

[6] = DRUGMATRIX: Purinergic P2X radioligand binding (ligand: [3H] alpha, beta-Methylene-ATP); assay type: cell membranes, Oryctolagus cuniculus, New Zealand albino, Urinary bladder, Membrane; settings: Not Active = under 50% inhibition at 10 µM
[7] = DRUGMATRIX: Glutamate, NMDA, Phencyclidine radioligand binding (ligand: [3H] TCP); assay type: cell membranes, Rattus norvegicus, Wistar, Cerebral cortex, Membrane; settings: Not Active = under 50% inhibition at 10 µM

O=C(Nc1ccc(Br)cc1)c1cc(Br)cc(Br)c1O [TRIBROMSALAN]
Not Active: IC50 [1] | IC50 [2] | Ki [2] | IC50 [3] | Ki [3] | IC50 (Glycine receptor) | IC50 [4] | IC50 [5] | IC50 [6] | Ki [6] | IC50 [7] | Ki [7]

CC(c1cc2ccccc2s1)N(O)C(N)=O (stereo unspecified) [ZILEUTON]
Not Active: IC50 [1] | IC50 [2] | Ki [2] | IC50 [3] | Ki [3] | IC50 (Glycine receptor) | IC50 [4] | IC50 [5] | IC50 [6] | Ki [6] | IC50 [7] | Ki [7]

MANGANESE CHLORIDE ANHYDROUS
Not Active: IC50 [1] | Ki [1] | IC50 [2] | Ki [2] | IC50 [3] | Ki [3] | IC50 (Glycine receptor) | Ki (Glycine receptor) | IC50 [4] | Ki [4] | IC50 [5] | Ki [5] | IC50 [6] | Ki [6] | IC50 [7] | Ki [7]

SODIUM ORTHOVANAD
Not Active: IC50 [1] | Ki [1] | IC50 [2] | Ki [2] | IC50 [3] | Ki [3] | IC50 (Glycine receptor) | Ki (Glycine receptor) | IC50 [4] | Ki [4] | IC50 [5] | Ki [5] | IC50 [6] | Ki [6] | IC50 [7] | Ki [7]
